According to EPA's ToxRefDB 2:

How the values were obtained:
rabbit [1] = details: Prenatal developmental toxicity study, himalayan, Oral, Gavage/Intubation, dose end: 19 GD
dog [2] = details: Chronic toxicity; beagle; Oral; Feed; dose end: 52 week; group: systemic; systemic / clinical chemistry / creatinine / creatinine + systemic / clinical chemistry / urea nitrogen / urea + systemic / pathology …
rat [3] = details: Subchronic dermal toxicity, sprague dawley, Topical, dose end: 28 day, group: systemic, systemic / clinical chemistry / alkaline phosphatase (alp/alk) / alkaline phosphatase (alp/alk) + systemic / clinical chemistry / glucose / …
rat [4] = details: Subchronic oral toxicity in rodents, sprague dawley, Feed, dose end: 3 month, group: systemic
mouse [5] = details: Subchronic oral toxicity in rodents, other, Feed, dose end: 13 week, group: systemic
rat [6] = details: Combined chronic toxicity/carcinogenicity; sprague dawley; Oral; Feed; dose end: 24 month; group: systemic; systemic / pathology microscopic / kidney / infiltration cellular + systemic / pathology microscopic / kidney / nephropathy
dog [7] = details: Subchronic oral toxicity in nonrodent, beagle, Feed, dose end: 28 day, group: systemic, systemic / in life observation / food consumption / food consumption + systemic / in life observation / body weight / body weight + systemic…
rat [8] = details: Prenatal developmental toxicity study, other, Oral, Gavage/Intubation, dose end: 15 GD
rat [9] = details: Subchronic oral toxicity in rodents, sprague dawley, Gavage/Intubation, dose end: 28 day, group: systemic
rat [10] = details: Subchronic oral toxicity in rodents, sprague dawley, Feed, dose end: 28 day, group: systemic
rabbit [11] = details: Prenatal developmental toxicity study, other, Oral, Gavage/Intubation, dose end: 19 GD
rat [12] = details: Prenatal developmental toxicity study, other, Oral, Gavage/Intubation, dose end: 15 GD; remark: listed apart in the source
mouse [13] = details: Other (NonGuideline or Guideline Not Listed), Oral, Feed, dose end: 59 day, group: cannot be grouped
dog [14] = details: Subchronic oral toxicity in nonrodent, beagle, Feed, dose end: 13 week, group: systemic, systemic / clinical chemistry / alanine aminotransferase (alt/sgpt) / alanine aminotransferase (alt/sgpt) + systemic / clinical chemistry / …
mouse [15] = details: Carcinogenicity, other, Oral, Feed, dose end: 78 week, group: systemic
[16] = group: developmental, developmental / developmental malformation / bone / fused + developmental / developmental malformation / bone / misshapen + developmental / …
[17] = group: maternal, systemic / in life observation / food consumption / food consumption + reproductive / reproductive performance / postimplantation loss / …
[18] = systemic / pathology microscopic / kidney / hyalinization + systemic / pathology microscopic / kidney / lesion(s) (nos)
[19] = systemic / pathology microscopic / kidney / hyalinization + systemic / pathology microscopic / kidney / lesion(s) (nos) + systemic / …
[20] = systemic / pathology microscopic / liver / hypertrophy
[21] = systemic / pathology microscopic / liver / hypertrophy + systemic / hematology / anemia / anemia - nos + systemic / hematology / erythrocyte…
[22] = group: developmental, developmental / developmental malformation / bone / incomplete ossification + developmental / developmental malformation / bone / irregular …
[23] = group: maternal, systemic / in life observation / body weight / body weight + systemic / in life observation / body weight / body weight gain + systemic / in…
[24] = systemic / pathology microscopic / kidney / dilatation + systemic / pathology microscopic / adrenal gland / fatty change + systemic / in …
[25] = systemic / pathology microscopic / kidney / [other] + systemic / pathology microscopic / kidney / dilatation + systemic / pathology …
[26] = systemic / pathology microscopic / kidney / proliferation
[27] = group: developmental, systemic / in life observation / body weight / fetal weight
[28] = group: maternal, systemic / in life observation / body weight / body weight gain + systemic / in life observation / food consumption / food consumption
[29] = group: maternal, systemic / in life observation / body weight / body weight gain + systemic / in life observation / food consumption / food consumption + …
[30] = group: maternal, systemic / in life observation / body weight / body weight gain + systemic / in life observation / body weight / body weight + systemic / in…
[31] = systemic / pathology microscopic / liver / proliferation + systemic / organ weight / liver / absolute + systemic / organ weight / liver / …
[32] = systemic / pathology microscopic / liver / hypertrophy + systemic / pathology microscopic / liver / infiltration cellular + systemic / …

For `CN1COCN(Cc2cnc(Cl)s2)/C1=N/[N+](=O)[O-]` [Thiamethoxam], the LEL (rabbit [1]; [16]) was 150 mg/kg/day, the LOAEL (rabbit [1]; [16]) was 150 mg/kg/day and the NEL (rabbit [1]; [16]) was 50 mg/kg/day. It also gave an NOAEL (rabbit [1]; [16]) of 50 mg/kg/day, an LEL (rabbit [1]; group: maternal, systemic / in life observation / food consumption / food consumption) of 50 mg/kg/day and an LOAEL (rabbit [1]; [17]) of 150 mg/kg/day. The NEL (rabbit [1]; [17]) was 15 mg/kg/day, the NOAEL (rabbit [1]; [17]) was 50 mg/kg/day and the LEL (dog [2]) was 21 mg/kg/day. The LOAEL (dog [2]) was 21 mg/kg/day, the NEL (dog [2]) was 4.05 mg/kg/day and the NOAEL (dog [2]) was 4.05 mg/kg/day. It also gave an LEL (rat [3]) of 250 mg/kg/day, an LOAEL (rat [3]) of 250 mg/kg/day and an NEL (rat [3]) of 60 mg/kg/day. The NOAEL (rat [3]) was 60 mg/kg/day, the LEL (rat [4]; [18]) was 17.6 mg/kg/day and the LOAEL (rat [4]; [18]) was 17.6 mg/kg/day. It also gave an NEL (rat [4]; [19]) of 1.74 mg/kg/day, an NOAEL (rat [4]; [19]) of 1.74 mg/kg/day and an LEL (mouse [5]; [20]) of 14.3 mg/kg/day. For the same compound, the LOAEL (mouse [5]; [20]) was 14.3 mg/kg/day, the NEL (mouse [5]; [21]) was 1.41 mg/kg/day and the NOAEL (mouse [5]; [21]) was 1.41 mg/kg/day. For the same compound, the LEL (rat [6]) was 63 mg/kg/day, the LOAEL (rat [6]) was 63 mg/kg/day and the NEL (rat [6]) was 21 mg/kg/day. The NOAEL (rat [6]) was 21 mg/kg/day, the LEL (dog [7]) was 43 mg/kg/day and the LOAEL (dog [7]) was 43 mg/kg/day. The NEL (dog [7]) was 32.6 mg/kg/day, the NOAEL (dog [7]) was 32.6 mg/kg/day and the LOAEL (rat [8]; [22]) was 750 mg/kg/day. It also gave an NEL (rat [8]; [22]) of 30 mg/kg/day, an NOAEL (rat [8]; [22]) of 200 mg/kg/day and an LEL (rat [8]; group: developmental, developmental / developmental malformation / bone / incomplete ossification + developmental / developmental malformation / bone / short …) of 200 mg/kg/day. The LEL (rat [8]; [23]) was 200 mg/kg/day, the LOAEL (rat [8]; [23]) was 200 mg/kg/day and the NEL (rat [8]; [23]) was 30 mg/kg/day. For the same compound, the NOAEL (rat [8]; [23]) was 30 mg/kg/day, the LOAEL (rat [9]; systemic / pathology microscopic / kidney / dilatation + systemic / pathology microscopic / adrenal gland / fatty change) was 300 mg/kg/day and the NEL (rat [9]; [24]) was 100 mg/kg/day. It also gave an NOAEL (rat [9]; [24]) of 100 mg/kg/day, an LEL (rat [9]; systemic / pathology microscopic / kidney / dilatation + systemic / pathology microscopic / adrenal gland / fatty change + systemic / …) of 300 mg/kg/day and an LOAEL (rat [10]; [25]) of 81.7 mg/kg/day. It also gave an NOAEL (rat [10]; [25]) of 8.04 mg/kg/day, an LEL (rat [10]; [26]) of 8.04 mg/kg/day and an NEL (rat [10]; [26]) of under 8.04 mg/kg/day. For the same compound, the LEL (rabbit [11]; [27]) was 150 mg/kg/day, the LOAEL (rabbit [11]; [27]) was 150 mg/kg/day and the NEL (rabbit [11]; [27]) was 50 mg/kg/day. It also gave an NOAEL (rabbit [11]; [27]) of 50 mg/kg/day, an LEL (rabbit [11]; [28]) of 50 mg/kg/day and an LOAEL (rabbit [11]; [28]) of 50 mg/kg/day. For the same compound, the NEL (rabbit [11]; [29]) was 10 mg/kg/day, the NOAEL (rabbit [11]; [29]) was 10 mg/kg/day and the LEL (rat [12]; [27]) was 1000 mg/kg/day. For the same compound, the LOAEL (rat [12]; [27]) was 1000 mg/kg/day, the NEL (rat [12]; [27]) was 500 mg/kg/day and the NOAEL (rat [12]; [27]) was 500 mg/kg/day. For the same compound, the LOAEL (rat [12]; group: maternal, systemic / in life observation / body weight / body weight gain) was 500 mg/kg/day, the LEL (rat [12]; [30]) was 500 mg/kg/day and the NEL (rat [12]; [30]) was 100 mg/kg/day. The NOAEL (rat [12]; [30]) was 100 mg/kg/day, the LEL (mouse [13]; systemic / pathology microscopic / liver / proliferation) was 72 mg/kg/day and the LOAEL (mouse [13]; [31]) was over 386 mg/kg/day. It also gave an NEL (mouse [13]; [31]) of 16 mg/kg/day, an NOAEL (mouse [13]; [31]) of at least 386 mg/kg/day and an LEL (dog [14]) of 32 mg/kg/day. The LOAEL (dog [14]) was 32 mg/kg/day, the NEL (dog [14]) was 8.23 mg/kg/day and the NOAEL (dog [14]) was 8.23 mg/kg/day. For the same compound, the NEL (mouse [15]; systemic / organ weight / liver / relative to body weight + systemic / pathology microscopic / liver / hypertrophy + systemic / pathology …) was 479 mg/kg/day, the LOAEL (mouse [15]; [32]) was 63.8 mg/kg/day and the NOAEL (mouse [15]; [32]) was 2.63 mg/kg/day.
